Tested on: Cas 12a gRNA target sites on Zea mays B73 chromosome 8
Assay: gRNA target site editing rate by Fragment Length Analysis in stably transformed corn plants
Type: in vivo
Conditions: LbCas12a; for Number of Plants with Target Site Edits: stably transformed corn plants
Source text: Agrobacterium T-DNA vectors were designed to evaluate gRNA and LbCas12a nuclease mediated cleavage at the selected target sites. Each T-DNA vector comprised 3 cassettes. The first cassette comprised a plant codon optimized LbCas12a (SEQ ID NO:33) flanked by the same nuclear localization signal sequence (NLS) at the 5′ and 3′ ends (SEQ ID:191), and was operably linked to Zea mays Ubiquitin promoter (SEQ ID NO:192) and a 3′UTR sequence from a rice lipid transfer protein (LTP) gene (SEQ ID NO:193). The second cassette was a unique gRNA cassette targeting one of the 17 targeting sites described in Table 5. The cassette comprised a Zea mays Pol III promoter operably linked to a Cas12a gRNA unit. […] The third cassette was an EPSPS expression cassette encoding a 5-enolpyruvylshikimate-3-phosphate synthase as a selectable marker for selecting transformants in the present of glyphosate.
Corn embryo explants were transformed with the vectors described above by Agrobacterium-mediated transformation. Transformed plants were selected on glyphosate. Leaf samples from regenerated plantlets were harvested, and genomic DNA was extracted for Fragment Length Analysis (FLA). […] The amplicon fragment lengths were subsequently analyzed using capillary electrophoresis, and compared to a wildtype amplicon to identify mutants that had larger or smaller amplicons due to the presence of indels. […] One μl of the PCR product was combined with 0.5 μl of the GeneScan 1200 LIZ Size Standard (Thermo Fisher, MA), 8.5 μl of formamide, and ran on ABI3730 sequencer (Thermo Fisher, MA) to detect amplicon size and analyzed for fragment length variation to identify plants with mutations at the target sites. […] NA denotes that a transformation was performed, but was not successful. gRNA activity was determined by calculating the percentage of plants that contained a target site indel edit out of the total number of plants examined.

Substance	Target Editing Rate (percentage of plants with a target site indel edit out of plants examined) [%]	Number of Plants with Target Site Edits
ZmTS1: LbCas12a gRNA targeting site ZmTS1 (target SEQ ID NO 174, spacer SEQ ID NO 195) (guide ACCGACTTGGGCATATATTATTT; gRNA scaffold not given here)	11	16
ZmTS10: LbCas12a gRNA targeting site ZmTS10 (target SEQ ID NO 183, spacer SEQ ID NO 204) (guide CCACAAGGCTATTCACTCCCTAT; gRNA scaffold not given here)	–	32

Source: US20240229063A1, “TRANSGENIC CORN EVENT ZM_CSM63715 AND METHODS FOR DETECTION AND USES THEREOF” (Monsanto Technology LLC, priority 2022, published 2024)
